The term IC90 denotes the concentration needed for an effect of 90%.

Each structure is given as a SMILES string. Read-outs that look alike come from different tables or passages of the source. A value given as a limit tells only on which side of the number the result lay.

The values that follow come from patent publication US20070015733A1, “Aryl Phosphate Derivatives of d4T having Activity Against Resistant HIV Strains” (Parker Hughes Institute, priority 1998, published 2007).

Data set [1] deals with HIV-1 (HTLVIIIB) in TK-deficient CEM T-cells. Nature of the data set: Inhibition of HIV-1 replication in TK-deficient CEM T-cells (p24 / RT activity). The class given is cell-based. As for the experimental part: (§1) Percent inhibition of viral replication was calculated by comparing the p24 and RT activity values from the test substance-treated infected cells with those from untreated infected cells. In parallel, the cytotoxicity of the compounds was examined using a microculture tetrazolium assay (MTA) of cell proliferation, as described.in the Zarling, Enrice, and Uckun articles Supra).
(§2) Cellular Assays of Anti-HIV Activity and Cytotoxicity. […] Percent viral inhibition was calculated by comparing the RT activity values from the test substance-treated infected cells with RT values from untreated infected cells (i.e., virus controls).

The nature of the next data set: in vitro. Conditions: human. As for the experimental part:
as §1, §2
(§3) Antiviral susceptibility assays. Phenotypic drug susceptibility studies of HIV-1 isolates and strains were performed by measuring the production of the p24 gag protein in peripheral blood mononuclear cells (PBMC) from seronegative healthy volunteers in the presence of increasing concentrations of the anti-HIV agent using the quantitative Coulter HIV-1 p24 antigen ezyme immunoassay (EIA) and HIV-1 p24 Antigen Kinetic Standard (Beckman Coulter), as previously described (Uckun, 1998, Antimicrobial Agents and Chemotherapy 37(4): 835-38). Informed consent was obtained from the blood donors according to DHHS guidelines using consent forms approved by the Institutional Review Board. In brief, PBMC were cultured for 72 h in RPMI 1640 medium (Gibco) supplemented with 20% (vol/vol) heat-inactivated fetal bovine serum, 5% human interleukin-2 (Zeptometrix), 2 mM L-glutamine, 25 mM HEPES, 2 g/L NaHCO3, 100 U/ml penicillin/streptomycin (Gibco), 50 μg/ml gentamicin (Gibco), and 5 μg/ml phytohemagglutinin-P (PHA-P) (Sigma) for 24-72 hours prior to exposure to HIV at a multiplicity of infection of 0.001-0.1 during a 1-h adsorbtion period at 37±1° C. in a humidified 5-7% CO2 atmosphere. Subsequently, cells were cultured in 96-well microtiter plates (100 μl/well; 2×10^6 cells/ml, triplicate wells) in the presence of the anti-HIV agents at 6-7 different concentrations ranging from 0.0001 μM to 100 μM, and 25 μL aliquots of culture supernatants were removed from the wells on day 6 after infection for p24 EIA, as previously described (Uckun, 1998, Antimicrobial Agents and Chemotherapy, 37(4):835-38). Controls included uninfected and untreated cells (background control) and infected but untreated (virus control) cells. The p24 EIA utilizes a murine monoclonal antibody to HIV core protein used to coat microwell strips to which the antigen present in the test culture supernatant samples binds. Percent inhibition of viral replication was calculated by comparing the p24 values from the test substance-treated infected cells with p24 values from untreated infected cells (i.e., virus controls). The IC50 values were determined using the Statview statistics program (SAS Institute, Inc.). In parallel, the effects of various treatments on cell viability were also examined as previously described (Uckun, 1998, Antimicrobial Agents and Chemotherapy, 42:383-388). In brief, noninfected PBMC were treated with each compound for 5 days under identical experimental conditions. A microculture tetrazolium assay (MTA) was performed to quantitate cellular proliferation (Uckun, 1998, Antimicrobial Agents and Chemotherapy, 42:383-388).
In parallel, the cytotoxicity of the compounds was examined using a microculture tetrazolium assay (MTA) of cell proliferation, as described (in the Zarling, Enrice, and Uckun articles Supra).

Data set [2] has as its system HIV-1 A17 (Y181C mutant, NNRTI-resistant). Put plainly: p24 antigen assay, A17 strain in PBMC. Conditions: Human immunodeficiency virus 1, PBMC. It is filed as cell-based. From the text:
In vitro assays of anti-HIV-1 activity.
Viruses. 20 primary clinical isolates with genotypic and/or phenotypic NRTI-resistance (isolated in the laboratory of D. Richman) and 10 clinical isolates with phenotypic stavudine (d4T) resistance (obtained through the AIDS Research and Reference Reagent Program, NIAID) were used in the current study. The HIV-1 strains HTLVIIIB (wildtype RT, NRTI-sensitive, NNRTI-sensitive), A17 (Y181 C mutant, NNRTI-resistant), A17-variant (Y181C+K103N mutant, NNRTI-resistant), and RT-MDR (M41 L, V106N, T215Y; NRTI-resistant, NNRTI-resistant) were also obtained from the AIDS Research and Reference Reagent Program, NIAID.
Antiviral susceptibility assays.

Data set [3] has as its system HIV-1 RT-MDR (NRTI-resistant, NNRTI-resistant). Put plainly: p24 antigen assay, RT-MDR strain. It is filed as cell-based.
Data set [4] relates to Zidovudine-Sensitive Primary Clinical HIV-1 Isolates. Nature of the data set: p24 drug susceptibility assay, zidovudine-sensitive primary clinical HIV-1 isolates in PBMC. The class given is cell-based. Conditions: Human immunodeficiency virus 1, PBMC. The protocol: as §3
Phenotypic drug susceptibility studies of HIV-1 isolates and strains were performed by measuring the production of the p24 gag protein in peripheral blood mononuclear cells (PBMC) from seronegative healthy volunteers in the presence of increasing concentrations of the anti-HIV agent using the quantitative Coulter HIV-1 p24 antigen enzyme immunoassay (EIA) and HIV-1 p24 Antigen Kinetic Standard (Beckman Coulter), as previously described. StatView was used in the calculation of the IC50 values from each set of triplicate wells using the linearized form of an exponential equation (lnY=lnb0+b1X; where Y=% inhibition, X=drug concentration). The inhibition constants were log10 transformed to homogenize the variances within each group. […] P-values below 0.05 were deemed significant (JMP Software, SAS).

Where [5] appears, read: Human immunodeficiency virus 1, CCRF-CEM, TK-deficient CEM cells, read-out: IC50 value for inhibition of RT activity.
Where [6] appears, read: Human immunodeficiency virus 1, T-cell, TK-deficient CEM T-cells, Table 5, read-out: CEM IC50 [RT].
[7] abbreviates: Human immunodeficiency virus 1, RT-MDR(Con) control strain (M41L, L74V, T215Y, V106N).
Setting [8] is: Human immunodeficiency virus 1, read-out: IC50 RTMDR, p24.
The mark [9] stands for this setting: read-out: IC50, μM (p24), Mean ± SE, mean over 10 zidovudine-sensitive clinical isolates.
Where [10] appears, read: read-out: IC50, μM (p24), isolate 92BR025 (C/C, Brazil), PBMC.
The mark [11] stands for this setting: read-out: IC50, μM (p24), isolate 92RW008 (—/A, Rawanda), PBMC.
Setting [12] is: read-out: IC50, μM (p24), isolate 93BR019 (—/BF, Brazil), PBMC.
Where [13] appears, read: read-out: IC50, μM (p24), isolate 93BR020 (F/F, Brazil), PBMC.
The mark [14] stands for this setting: read-out: IC50, μM (p24), isolate 93BR029 (F/B, Brazil), PBMC.
Setting [15] is: read-out: IC50, μM (p24), isolate 93IN101 (—/C, India), PBMC.
Where [16] appears, read: read-out: IC50, μM (p24), isolate HIV-1G3 (—/G, Nigeria), PBMC.
Where [17] appears, read: read-out: IC50 range, range over 10 zidovudine-sensitive clinical isolates.
[18] abbreviates: Human immunodeficiency virus 1, CCRF-CEM, TK-deficient CEM cells, read-out: IC50 value for inhibition of p24 production.
Setting [19] is: Human immunodeficiency virus 1, T-cell, TK-deficient CEM, unit not printed in Table 2 (0.556 = 556 nM), read-out: IC50 [p24].
[20] abbreviates: Human immunodeficiency virus 1, T-cell, TK-deficient CEM, unit not printed in Table 2 (2.355 = 2355 nM), read-out: IC50 [RT].
The mark [21] stands for this setting: Human immunodeficiency virus 1, MT2, laboratory strain RT-MDR (V106N), MT-2 cells, Table 14.
Setting [22] is: primary isolate RW/92/8 (V179I), Table 14.
The mark [23] stands for this setting: read-out: IC50, μM (p24), isolate 92BR003 (B/B, Brazil), PBMC.
[24] abbreviates: read-out: IC50, μM (p24), isolate 92RW016 (subtype A/A, Rawanda), PBMC.
Setting [25] is: read-out: IC50, μM (p24), isolate HIV-1JV1083 (—/G, Nigeria), PBMC.

For the compound `Cc1cn([C@H]2C[C@H](N=[N+]=[N-])[C@@H](CO)O2)c(=O)[nH]c1=O` [AZT, 3′-azido-3′-deoxythymidine], the IC50 in data set [1] (setting [5]) is 200 nM; in data set [1] (setting [6]) it was 200 nM; in data set [2] (read-out: IC50 A17) it was 0.055 nM; in data set [3] (setting [7]), over 10000 nM; in data set [3] (setting [8]), 68 nM; in data set [4] (setting [9]) it was 0.004 ± 0.001 µM. Moreover, the IC50 was 0.004 µM in data set [4] (setting [10]); 0.002 µM in data set [4] (setting [11]); 0.002 µM in data set [4] (setting [12]); 0.002 µM in data set [4] (setting [13]); 0.007 µM in data set [4] (setting [14]); 0.001 µM in data set [4] (setting [15]). The IC50 was 0.01 µM in data set [4] (setting [16]) and 0.001 to 0.01 µM in data set [4] (setting [17]). The CC50 at 5 days in “in vitro” (CC50) came to 0.0527 µM; in the data set “in vitro” (CC50, μM) it was 95.6 ± 2.9 µM. The IC50 at 5 days in the data set “in vitro” (PBMNC IC50 [MTA]) is over 10000 nM. For the same compound, the IC90 was 50 ± 10 nM in data set [4] (read-out: IC90 mean ±SE) and 11 to 90 nM in data set [4] (read-out: IC90 range).
Consider `COC(=O)C(C)NP(=O)(OC[C@@H]1C=C[C@H](n2cc(C)c(=O)[nH]c2=O)O1)Oc1ccc(Br)cc1` (some centres unmarked) [Compound 1c, d4T-5′-[p-bromo-phenylmethoxyalaninyl phosphate]], for which the IC50 in data set [1] (setting [5]) was 57 nM; in data set [1] (setting [18]), 44 nM; in data set [1] (setting [6]), 60 nM; in data set [1] (setting [19]), 44 nM; in data set [1] (setting [20]), 57 nM; in data set [2] it was under 1 nM. The IC50 in data set [2] (read-out: IC50 A17) is 36 ± 21 nM; in data set [3] (setting [21]) it was under 1 nM; in data set [3] (setting [7]), under 1 nM; in data set [3] (setting [8]), 20 to 60 nM; in data set [3] (read-out: IC50 RTMDR, p24), 21 ± 12 nM; in data set [4] (setting [22]), 0.0008 µM. Further, the IC50 stood at 0.002 ± 0.001 µM in data set [4] (setting [9]); 0.0006 µM in data set [4] (setting [23]); 0.001 µM in data set [4] (setting [10]); 0.0008 µM in data set [4] (setting [11]); 0.003 µM in data set [4] (setting [24]); 0.0008 µM in data set [4] (setting [12]). The IC50 in data set [4] (setting [13]) stood at 0.007 µM; in data set [4] (setting [14]), 0.0008 µM; in data set [4] (setting [15]) it was 0.0005 µM; in data set [4] (setting [16]) it was 0.0005 µM; in data set [4] (setting [25]), 0.001 µM. Moreover, the CC50 at 5 days in “in vitro” was over 100 µM. This compound also showed an IC50 at 5 days in the data set “in vitro” of over 10000 nM.
Turning to `Cc1cn([C@H]2C=C[C@@H](CO)O2)c(=O)[nH]c1=O` [d4T, 2′,3′-didehydro-2′,3′-dideoxythymidine], the IC50 in data set [1] (setting [5]) was 2360 nM; in data set [1] (setting [18]), 556 nM; in data set [1] (setting [6]), 2400 nM; in data set [1] (setting [19]) it was 556 nM; in data set [1] (setting [20]), 2360 nM; in data set [1] (Human immunodeficiency virus 1, T-cell, read-out: CEM IC50 [RT], TK-deficient CEM T-cells, Table 4), 2340 nM. Also, the IC50 in data set [4] (setting [9]) stood at 0.24 ± 0.07 µM; in data set [4] (setting [23]) it was 0.1 µM; in data set [4] (setting [10]), 0.4 µM; in data set [4] (setting [11]) it was 0.2 µM; in data set [4] (setting [24]), 0.1 µM; in data set [4] (setting [12]) it was 0.2 µM. The IC50 in data set [4] (setting [13]) is 0.2 µM; in data set [4] (setting [14]), 0.8 µM; in data set [4] (setting [15]), 0.1 µM; in data set [4] (setting [16]), 0.1 µM; in data set [4] (setting [25]) it was 0.2 µM; in data set [4] (setting [17]), 0.1 to 0.8 µM. This compound also returned a CC50 at 5 days in “in vitro” (CC50, μM) of 4.5 ± 1.7 µM. In the data set “in vitro” (IC50 [MTA]), this compound showed an IC50 at 5 days of over 10000 nM. In addition, the IC90 in data set [4] (read-out: IC90 mean ±SE) is 6380 ± 3890 nM; in data set [4] (read-out: IC90 range), 1000 to 40900 nM.
In the case of `Cc1ccnc2c1NC(=O)c1cccnc1N2C1CC1` [nevirapine], the CC50 at 5 days in the data set “in vitro” (PBMC or MT-2 cells, CC50 values, data not shown) was over 100 µM; in “in vitro” (peripheral blood mononuclear cells (PBMC), CC50, μM, viability of PBMC), 5.1 ± 2.3 µM. Besides, the IC50 in data set [2] was 47000 ± 7000 nM; in data set [3] (setting [21]) it was 18000 ± 8000 nM; in data set [4] (setting [22]), 0.1 µM.
